In PubChem BioAssay (NCI):
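All cell lines were grown in 96-well plates and treated with compound for 48 hours. Abbreviation: GI50, concentration required for 50% inhibition of growth. Definition used: TGI = concentration required for complete inhibition of growth.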

How the values were obtained:
Assay in all cases: DTP human tumour cell line panel, 48 h
SK-MEL-2 melanoma = system: SK-MEL-2 melanoma
COLO 205 colon = system: COLO 205 colon
NCI-H23 lung = system: NCI-H23 lung
HCT-116 colon = system: HCT-116 colon
RXF 393 renal = system: RXF 393 renal
OVCAR-3 ovarian = system: OVCAR-3 ovarian
CCRF-CEM leukemia = system: CCRF-CEM leukemia
SN12C renal = system: SN12C renal
NCI-H460 lung = system: NCI-H460 lung
HCT-15 colon = system: HCT-15 colon
MOLT-4 leukemia = system: MOLT-4 leukemia
OVCAR-8 ovarian = system: OVCAR-8 ovarian
HT29 colon = system: HT29 colon
U251 CNS = system: U251 CNS
K-562 leukemia = system: K-562 leukemia
SF-268 CNS = system: SF-268 CNS
NCI-H522 lung = system: NCI-H522 lung
RPMI-8226 leukemia = system: RPMI-8226 leukemia
HOP-92 NSCLC = system: HOP-92 NSCLC
HS 578T breast = system: HS 578T breast
UACC-62 melanoma = system: UACC-62 melanoma
LOX IMVI melanoma = system: LOX IMVI melanoma
OVCAR-4 ovarian = system: OVCAR-4 ovarian
BT-549 breast = system: BT-549 breast
M14 melanoma = system: M14 melanoma
SR leukemia = system: SR leukemia
HCC-2998 colon = system: HCC-2998 colon
SK-MEL-5 melanoma = system: SK-MEL-5 melanoma
TK-10 renal = system: TK-10 renal
A498 renal = system: A498 renal
OVCAR-5 ovarian = system: OVCAR-5 ovarian
SF-539 CNS = system: SF-539 CNS
HL-60(TB) leukemia = system: HL-60(TB) leukemia
MCF7 breast = system: MCF7 breast
ACHN renal = system: ACHN renal
SK-MEL-28 melanoma = system: SK-MEL-28 melanoma
MALME-3M melanoma = system: MALME-3M melanoma
SNB-19 CNS = system: SNB-19 CNS
T-47D breast = system: T-47D breast
A549 NSCLC = system: A549 NSCLC
786-0 renal = system: 786-0 renal
SF-295 CNS = system: SF-295 CNS
KM12 colon = system: KM12 colon
UO-31 renal = system: UO-31 renal
SW-620 colon = system: SW-620 colon
EKVX NSCLC = system: EKVX NSCLC
IGROV1 ovarian = system: IGROV1 ovarian
PC-3 prostate = system: PC-3 prostate
SK-OV-3 ovarian = system: SK-OV-3 ovarian
UACC-257 melanoma = system: UACC-257 melanoma
MDA-MB-231 breast = system: MDA-MB-231 breast
CAKI-1 renal = system: CAKI-1 renal
NCI-H226 lung = system: NCI-H226 lung
MDA-MB-435 = system: MDA-MB-435
DU-145 prostate = system: DU-145 prostate
NCI/ADR-RES ovarian = system: NCI/ADR-RES ovarian
SNB-75 CNS = system: SNB-75 CNS
HOP-62 NSCLC = system: HOP-62 NSCLC

CCOC(=O)c1c(C)nc2c(c1N)/C(=C/c1ccccn1)C(=O)N2Cc1ccccc1
GI50 (SK-MEL-2 melanoma): 1160 nM
TGI (SK-MEL-2 melanoma): 3010 nM
GI50 (COLO 205 colon): 1060 nM
TGI (COLO 205 colon): 2380 nM
GI50 (NCI-H23 lung): 1290 nM
TGI (NCI-H23 lung): 4350 nM
GI50 (HCT-116 colon): 847 nM
TGI (HCT-116 colon): 1620 nM
GI50 (RXF 393 renal): 950 nM
TGI (RXF 393 renal): 1790 nM
GI50 (OVCAR-3 ovarian): 900 nM
TGI (OVCAR-3 ovarian): 1710 nM
GI50 (CCRF-CEM leukemia): 1560 nM
TGI (CCRF-CEM leukemia): > 50000 nM
GI50 (SN12C renal): 1150 nM
TGI (SN12C renal): 3090 nM
GI50 (NCI-H460 lung): 1170 nM
TGI (NCI-H460 lung): 2800 nM
GI50 (HCT-15 colon): 1070 nM
TGI (HCT-15 colon): 2630 nM
GI50 (MOLT-4 leukemia): 1720 nM
TGI (MOLT-4 leukemia): > 50000 nM
GI50 (OVCAR-8 ovarian): 1650 nM
TGI (OVCAR-8 ovarian): > 50000 nM
GI50 (HT29 colon): 1320 nM
TGI (HT29 colon): 3140 nM
GI50 (U251 CNS): 948 nM
TGI (U251 CNS): 1720 nM
GI50 (K-562 leukemia): 1770 nM
TGI (K-562 leukemia): > 50000 nM
GI50 (SF-268 CNS): 1410 nM
TGI (SF-268 CNS): > 50000 nM
GI50 (NCI-H522 lung): 1060 nM
TGI (NCI-H522 lung): 2890 nM
GI50 (RPMI-8226 leukemia): 1210 nM
TGI (RPMI-8226 leukemia): 3220 nM
GI50 (HOP-92 NSCLC): 903 nM
TGI (HOP-92 NSCLC): 1860 nM
GI50 (HS 578T breast): 2820 nM
TGI (HS 578T breast): > 50000 nM
GI50 (UACC-62 melanoma): 940 nM
TGI (UACC-62 melanoma): 1960 nM
GI50 (LOX IMVI melanoma): 830 nM
TGI (LOX IMVI melanoma): 1540 nM
GI50 (OVCAR-4 ovarian): 1510 nM
TGI (OVCAR-4 ovarian): > 50000 nM
GI50 (BT-549 breast): 1110 nM
TGI (BT-549 breast): 3090 nM
GI50 (M14 melanoma): 1030 nM
TGI (M14 melanoma): 2390 nM
GI50 (SR leukemia): 1370 nM
TGI (SR leukemia): > 50000 nM
GI50 (HCC-2998 colon): 895 nM
TGI (HCC-2998 colon): 1770 nM
GI50 (SK-MEL-5 melanoma): 950 nM
TGI (SK-MEL-5 melanoma): 1920 nM
GI50 (TK-10 renal): 1510 nM
TGI (TK-10 renal): > 50000 nM
GI50 (A498 renal): 1540 nM
TGI (A498 renal): > 50000 nM
GI50 (OVCAR-5 ovarian): 1040 nM
TGI (OVCAR-5 ovarian): 2680 nM
GI50 (SF-539 CNS): 882 nM
TGI (SF-539 CNS): 1770 nM
GI50 (HL-60(TB) leukemia): 1610 nM
TGI (HL-60(TB) leukemia): > 50000 nM
GI50 (MCF7 breast): 1380 nM
TGI (MCF7 breast): 4130 nM
GI50 (ACHN renal): 906 nM
TGI (ACHN renal): 1760 nM
GI50 (SK-MEL-28 melanoma): 1160 nM
TGI (SK-MEL-28 melanoma): 3210 nM
GI50 (MALME-3M melanoma): 937 nM
TGI (MALME-3M melanoma): 2200 nM
GI50 (SNB-19 CNS): 1090 nM
TGI (SNB-19 CNS): 2490 nM
GI50 (T-47D breast): 1130 nM
TGI (T-47D breast): 3300 nM
GI50 (A549 NSCLC): 2520 nM
TGI (A549 NSCLC): > 50000 nM
GI50 (786-0 renal): 867 nM
TGI (786-0 renal): 1680 nM
GI50 (SF-295 CNS): 1900 nM
TGI (SF-295 CNS): > 50000 nM
GI50 (KM12 colon): 1150 nM
TGI (KM12 colon): 2850 nM
GI50 (UO-31 renal): 691 nM
TGI (UO-31 renal): 1370 nM
GI50 (SW-620 colon): 1000 nM
TGI (SW-620 colon): 2310 nM
GI50 (EKVX NSCLC): 1210 nM
TGI (EKVX NSCLC): > 50000 nM
GI50 (IGROV1 ovarian): 1200 nM
TGI (IGROV1 ovarian): 3470 nM
GI50 (PC-3 prostate): 1170 nM
TGI (PC-3 prostate): 2640 nM
GI50 (SK-OV-3 ovarian): 3080 nM
TGI (SK-OV-3 ovarian): > 50000 nM

Clc1cccc(CNc2c3ccccc3nc3ccccc23)c1
GI50 (UACC-257 melanoma): 1920 nM
TGI (UACC-257 melanoma): 4250 nM
GI50 (SK-MEL-2 melanoma): 2000 nM
TGI (SK-MEL-2 melanoma): 4220 nM
GI50 (COLO 205 colon): 1540 nM
TGI (COLO 205 colon): 3880 nM
GI50 (NCI-H23 lung): 1730 nM
TGI (NCI-H23 lung): 4930 nM
GI50 (HCT-116 colon): 1350 nM
TGI (HCT-116 colon): 3410 nM
GI50 (RXF 393 renal): 1350 nM
TGI (RXF 393 renal): 2850 nM
GI50 (MDA-MB-231 breast): 1910 nM
TGI (MDA-MB-231 breast): 4750 nM
GI50 (OVCAR-3 ovarian): 2100 nM
TGI (OVCAR-3 ovarian): 4560 nM
GI50 (CCRF-CEM leukemia): 2310 nM
TGI (CCRF-CEM leukemia): 8770 nM
GI50 (SN12C renal): 2360 nM
TGI (SN12C renal): 11000 nM
GI50 (NCI-H460 lung): 1950 nM
TGI (NCI-H460 lung): 4200 nM
GI50 (HCT-15 colon): 1880 nM
TGI (HCT-15 colon): 4600 nM
GI50 (MOLT-4 leukemia): 2510 nM
TGI (MOLT-4 leukemia): 10700 nM
GI50 (OVCAR-8 ovarian): 2410 nM
TGI (OVCAR-8 ovarian): 8930 nM
GI50 (HT29 colon): 1980 nM
TGI (HT29 colon): 10200 nM
GI50 (U251 CNS): 2000 nM
TGI (U251 CNS): 4560 nM
GI50 (K-562 leukemia): 2390 nM
TGI (K-562 leukemia): 11200 nM
GI50 (SF-268 CNS): 2540 nM
TGI (SF-268 CNS): 7880 nM
GI50 (NCI-H522 lung): 1880 nM
TGI (NCI-H522 lung): 4890 nM
GI50 (RPMI-8226 leukemia): 1740 nM
TGI (RPMI-8226 leukemia): 4180 nM
GI50 (HOP-92 NSCLC): 1120 nM
TGI (HOP-92 NSCLC): 3820 nM
GI50 (UACC-62 melanoma): 1870 nM
TGI (UACC-62 melanoma): 3980 nM
GI50 (LOX IMVI melanoma): 1530 nM
TGI (LOX IMVI melanoma): 3080 nM
GI50 (OVCAR-4 ovarian): 2150 nM
TGI (OVCAR-4 ovarian): 7950 nM
GI50 (BT-549 breast): 2340 nM
TGI (BT-549 breast): 7190 nM
GI50 (M14 melanoma): 1530 nM
TGI (M14 melanoma): 3020 nM
GI50 (SR leukemia): 1470 nM
TGI (SR leukemia): 4550 nM
GI50 (HCC-2998 colon): 1650 nM
TGI (HCC-2998 colon): 3190 nM
GI50 (SK-MEL-5 melanoma): 1720 nM
TGI (SK-MEL-5 melanoma): 3130 nM
GI50 (CAKI-1 renal): 1670 nM
TGI (CAKI-1 renal): 4820 nM
GI50 (TK-10 renal): 2950 nM
TGI (TK-10 renal): 8990 nM
GI50 (A498 renal): 1300 nM
TGI (A498 renal): 2670 nM
GI50 (NCI-H226 lung): 2220 nM
TGI (NCI-H226 lung): 6240 nM
GI50 (OVCAR-5 ovarian): 2060 nM
TGI (OVCAR-5 ovarian): 6540 nM
GI50 (SF-539 CNS): 1780 nM
TGI (SF-539 CNS): 3320 nM
GI50 (MDA-MB-435): 1670 nM
TGI (MDA-MB-435): 3130 nM
GI50 (HL-60(TB) leukemia): 1900 nM
TGI (HL-60(TB) leukemia): 4350 nM
GI50 (DU-145 prostate): 2570 nM
TGI (DU-145 prostate): 7170 nM
GI50 (MCF7 breast): 1620 nM
TGI (MCF7 breast): 3530 nM
GI50 (ACHN renal): 1590 nM
TGI (ACHN renal): 3660 nM
GI50 (NCI/ADR-RES ovarian): 1800 nM
TGI (NCI/ADR-RES ovarian): 4970 nM
GI50 (SK-MEL-28 melanoma): 1700 nM
TGI (SK-MEL-28 melanoma): 3250 nM
GI50 (MALME-3M melanoma): 1610 nM
TGI (MALME-3M melanoma): 3020 nM
GI50 (SNB-19 CNS): 2890 nM
TGI (SNB-19 CNS): 12400 nM
GI50 (T-47D breast): 2000 nM
TGI (T-47D breast): 5060 nM
GI50 (A549 NSCLC): 2070 nM
TGI (A549 NSCLC): 6010 nM
GI50 (786-0 renal): 1660 nM
TGI (786-0 renal): 3200 nM
GI50 (SF-295 CNS): 1510 nM
TGI (SF-295 CNS): 3080 nM
GI50 (KM12 colon): 2490 nM
TGI (KM12 colon): 7700 nM
GI50 (UO-31 renal): 1140 nM
TGI (UO-31 renal): 3130 nM
GI50 (SW-620 colon): 1470 nM
TGI (SW-620 colon): 3910 nM
GI50 (EKVX NSCLC): 2760 nM
TGI (EKVX NSCLC): 11200 nM
GI50 (SNB-75 CNS): 1760 nM
TGI (SNB-75 CNS): 6440 nM
GI50 (IGROV1 ovarian): 1910 nM
TGI (IGROV1 ovarian): 5460 nM
GI50 (HOP-62 NSCLC): 2770 nM
TGI (HOP-62 NSCLC): 12400 nM
GI50 (PC-3 prostate): 1640 nM
TGI (PC-3 prostate): 4650 nM
GI50 (SK-OV-3 ovarian): 3120 nM
TGI (SK-OV-3 ovarian): 13200 nM
